# Test results taken from paper PMC6822764, “MitoToxy assay: A novel cell-based method for the assessment of metabolic toxicity in a multiwell plate format using a lactate FRET nanosensor, Laconic” (PLoS ONE, 2019).
# Values joined by “and” are separate entries in the source; they are usually repeats but may differ in a detail not shown here. Identical values can stand only once. “Also recorded” adds a separate entry of the source. Like-named read-outs stand apart in the source and are kept apart here.
# Columns and labels:
# [1] = system: MitoTox Reporter cells (MDA-MB-231 expressing Laconic); assay: Pilot screening of 13 compounds with MitoTox Reporter cells, multiplate reader; format: cell-based; settings: for ΔR% variation / lactate accumulation over all concentrations tested: 1, 5, and 10 μM; for ΔR% (lactate accumulation): average of 4 replicate wells, Fig 9 legend 30 minutes, 37°C; for Concentration at which toxicity / mitochondrial effects were detected in the pilot screening: tested at 1, 5 and 10 μM
# Procedure: (§1) MitoTox reporter cell line was cultured in Leibowitz media (Gibco) supplemented with 10% of fetal bovine serum (FBS) at 37°C at atmospheric CO2 levels in a 100 mm petri dish. Once cells reached 100% confluency, they were trypsinized using 5% trypsin (Gibco) and washed in PBS. Viability was determine using trypan blue staining and 10,000 cells were seeded into each well of a 96 well plate. Experiments in 96 well format were performed once cells reached 100% confluency after 6 days, during the incubation media was not replaced. All the plates with signal-to-noise ration below 1.3 for monomeric Teal Fluorescent Protein (mTFP) and Venus channels were discarded. Background signal was determined with KRH buffer without cells. Experiments consisted in washing out the culture media using KRH HEPES buffer containing (mM) 136 NaCl, 3 KCl, 1.25 CaCl2, 1.25 MgCl2, 10 HEPES/Tris and pH 7.2 at 37°C with 300 mOsm. Then 200 μl of KRH HEPES buffer without any carbon sources was added to each well and the baseline was measured (RMIN), then 100 μl of buffer was replaced with mitochondrial toxicant/controls and signal was measured to obtain a stimulated response (RMAX). In experiments were pCMBS was used to block lactate exit, the inhibitor was added simultaneously with the mitochondrial toxicants. Data was collected in triplicated after 5, 10, 30, and 60 minutes of incubation. All the experiments in 96 well plates were performed in an EnVision® multiplate reader (PerkinElmer). Each well was excited at 430 nm and the intensity of mTFP and Venus fluorescence emission were recorded at 485 nm and 528 nm, using a set of filters.
# (§2) Where R(mTFP/Venus) min corresponded to the minimal change of mTFP/Venus ratio during the single-cell experiments. Results in 96 well plates experiments were expressed by the ΔR%. This parameter was obtained from the difference between the RMAX and RMIN from the same well (before-after experiment) as follow: ΔR%=(R(mTFP/Venus)max−R(mTFP/Venus)min/R(mTFP/Venus)min)x100
# Multiple comparisons versus control groups (Holm-Sidak method), Overall significance level P < 0,05.
# The capability of the assay to identify previously described toxic drugs was explored through a pilot screening assay. We selected 13 compounds from a variety of therapeutic classes to perform a pilot screening assay using MitoTox Reporter cells and a standard multiplate reader. […] To perform the assays, we prepared master stocks for each compound in 0.2% DMSO. Assays were performed with compounds at final concentrations of 1, 5, and 10 μM and the response of MitoTox Reporter cells were measured at 5, 10, 30, and 60 minutes. […] As a negative control we selected a compound with no reported side-effects.
# [2] = system: clonal MDA-MB-231 cells expressing Laconic; assay: Single-cell lactate imaging of MitoTox Reporter cells; format: cell-based; settings: 32 μM rotenone, 16 μM antimycin, 80 μM oligomycin, 10 μM myxothiazol
# Text: To generate a cell system with a high signal-to-noise ratio suitable for standard multiplate readers, we developed a clonal cell line with high levels and homogeneous Laconic expression. To do so, we produced a lentivirus particle to infect and transduce Laconic in MDA-MB-231 cells. From pooled cells with diverse levels of Laconic expression we selected high expression clones through FACS. […] We termed this cell line “MitoTox Reporter”. Exposure of these cells to classical mitochondrial poisons produced a robust increase in the fluorescent signal, indicating acute toxicity-induced lactate accumulation. […] With this evidence in hand, cells were tested in a multi-well plate reader.
# Fig 3 Characterization of “MitoTox reporter” cell line. A) Confocal images from FACS selected clonal MDA-MB-231 cells expressing Laconic. Size bars for 20x and 60x represent 100 μm and 10 μm, respectively. Cytosolic lactate accumulation induced by treatment with: B) 32 μM rotenone, C) 16 μM of antimycin, D) 80 μM of oligomycin, and 10 μM myxothiazol. Each trace is the average of ten cells from one representative experiment.
# oxygen consumption = system: oxygen consumption; set-up: method as in Hynes et al., 2013 [72]; settings: treatment time 0.13 hours; ref Hynes et al., 2013 [72]; cited from earlier work
# [3] = system: MDA-MB-231 cells stably expressing the FRET lactate indicator Laconic (MitoTox Reporter); assay: MitoToxy assay: toxicity-induced lactate accumulation in MitoTox Reporter cells, 96-well plate reader, with 50 μM pCMBS; format: cell-based
# Procedure: as §1, §2
# HepG2 cells [4] = system: HepG2 cells; set-up: method as in Nadanaciva et al., 2012 [55]; settings: treatment time 0.03 hours; ref Nadanaciva et al., 2012 [55]; cited from earlier work
# cell viability = system: cell viability; set-up: method as in Li et al., 2014 [50]; settings: treatment time 6 hours; ref Li et al., 2014 [50]; cited from earlier work
# [5] = system: primary culture of astrocytes from the mouse cortex expressing Laconic; assay: Single-cell lactate imaging (Laconic) in primary culture of cortical astrocytes; format: cell-based; settings: 32 μM rotenone, 16 μM antimycin, 5 mM azide, 80 μM oligomycin; buffer without carbon sources
# Procedure: Animals used for primary cultures were mixed F1 male mice (C57BL/6J × CBA/J), kept in an animal room under SPF conditions at a room temperature of 20 ± 2°C, in a 12/12-h light/dark cycle and with free access to water and food. Mixed cortical cultures of neuronal and glia cells (1 –to 3-day-old neonates) was cultured in Neurobasal medium (Gibco) supplemented with 5 mM glucose and B27. Cells were seeded on petri dishes and superfused with KRH HEPES pH 7.4. The lactate imaging experiments with single-cell resolution were performed using cultured astrocytes at 11–14 days post-dissection. Real time experiments were performed with KRH HEPES bathing solution containing (in mM) 136 NaCl, 3 KCl, 1.25 CaCl2, 1.25 MgCl2, 10 HEPES/Tris and pH 7.2 at 36°C with 300 mOsm, without carbon sources for mitochondrial toxicant experiments and 2 mM glucose and 1 mM lactate for Warburg index determination. Experiments were performed in upright Olympus FV1000 confocal microscope equipped with a 20X water-immersion objective (numerical aperture, 1.0) and a 440 nm solid-state laser.
# To plot the data, we used a ratio between mTFP and Venus channels. This ratio is proportional to lactate levels, since its binding to the sensor produced a decrease in FRET efficiency. This ratio was expressed in two formulas described below: NormalizedΔR=R(mTFP/Venus)/R(mTFP/Venus)min
# With the aim of testing if this observation occurs in general and if azide induced-lactate accumulation can be reproduced using another mitochondrial toxicant with a different molecular target, we performed single-cell experiments exposing primary culture of astrocytes from the mouse cortex expressing Laconic (Fig 1A) to different mitochondria inhibitors that block the ETC at different levels (Fig 1C). To take advantage of the maximal dynamic range of the lactate FRET sensor the baseline measurements were performed using buffer without carbon sources to force start the experiments with lactate levels below 100 μM.
# Each data point is from an average of ten cells from three independent experiments.
# HepG2 cells [6] = system: HepG2 cells; set-up: method as in Nadanaciva et al., 2012 [55]; settings: treatment time 0.03 hours; ref Nadanaciva et al., 2012 [55]; cited from earlier work; remark: listed apart in the source
# [7] = system: reactive oxygen species (ROS); set-up: method as in Li et al., 2014 [50]; settings: treatment time 6 hours; ref Li et al., 2014 [50]; cited from earlier work
# glutathione (GSH) = system: glutathione (GSH); set-up: method as in Li et al., 2014 [50]; settings: treatment time 6 hours; ref Li et al., 2014 [50]; cited from earlier work
# HepG2 cells [8] = system: HepG2 cells; set-up: method as in Marroquin et al., 2007 [35]; settings: treatment time 24 hours; approximated IC50 directly from plotted data in the original paper; ref Marroquin et al., 2007 [35]; cited from earlier work
# [9] = system: mitochondrial membrane potential (MMP); settings: cited from earlier work
# [10] = system: extracellular acidification; set-up: method as in Hynes et al., 2013 [72]; settings: treatment time 0.13 hours; ref Hynes et al., 2013 [72]; cited from earlier work
# HepG2 cells [11] = system: HepG2 cells; set-up: method as in PMID 22689143; settings: cited from earlier work
# [12] = treatment time 6 hours, ref Li et al., 2014 [50], read-out: IC50, MMP
smiles,measurement,setting,value
CN(C)C(=N)N=C(N)N [metformin],ΔR% variation / lactate accumulation over all concentrations tested,[1],None of these molecules produced an important ΔR% variation; also recorded: did not induce intra-cellular lactate accumulation
CC[C@H]1/C=C/C=C/C[C@@H](C)[C@H](O)[C@@](C)(O)C(=O)[C@@H](C)[C@H](O)[C@@H](C)C(=O)[C@@H](C)[C@H](O)[C@@H](C)/C=C/C(=O)O[C@@H]2[C@H](C)[C@H](CC1)O[C@]1(CC[C@H](C)[C@H](C[C@@H](C)O)O1)[C@H]2C [oligomycin],Intracellular lactate levels in MitoTox Reporter cells (single-cell),[2],"acute, fast, and robust increase of intracellular lactate levels"
same,IC50,oxygen consumption,0.038 µM
same,IC50,"[3]; Homo sapiens, MDA-MB-231, dose-response, treatment time 0.5 hours (Fig 8 legend: 10 minutes), 37°C, read-out: IC50 (toxicity-induced lactate accumulation, MitoToxy)",0.038 µM
same,IC50,HepG2 cells [4],1.1 µM
same,IC50,cell viability,182 µM
same,Cytosolic lactate accumulation in astrocytes,[5],induced an acute cytosolic lactate accumulation
same,IC50,HepG2 cells [6],0.92 µM
same,IC50,[7],> 1000 µM
same,IC50,glutathione (GSH),161 µM
same,IC50,HepG2 cells [8],0.005 µM
same,IC50,[9]; [12],15.6 µM
same,IC50,[10],0.077 µM
C=C(C)[C@H]1Cc2c(ccc3c2O[C@@H]2COc4cc(OC)c(OC)cc4[C@@H]2C3=O)O1 [rotenone],Intracellular lactate levels in MitoTox Reporter cells (single-cell),[2],"acute, fast, and robust increase of intracellular lactate levels"
same,IC50,oxygen consumption,0.02 µM
same,IC50,"[3]; Homo sapiens, MDA-MB-231, read-out: IC50 (toxicity-induced lactate accumulation)",0.0027 ± 0.00141 µM
same,IC50,"[3]; Homo sapiens, MDA-MB-231, read-out: IC50 (toxicity-induced lactate accumulation, MitoToxy)",0.0025 µM
same,IC50,HepG2 cells [4],0.371 µM
same,IC50,cell viability,> 1000 µM
same,Cytosolic lactate accumulation in astrocytes,[5],induced an acute cytosolic lactate accumulation
same,IC50,HepG2 cells [6],0.263 µM
same,IC50,[7],10.5 µM
same,IC50,glutathione (GSH),518 µM
same,IC50,HepG2 cells [8],0.05 µM
same,IC50,[9]; [12],20.3 µM
same,IC50,[10],0.002 µM
CO/C(=C/C(N)=O)[C@H](C)[C@H](/C=C/c1csc(-c2csc([C@@H](C)/C=C/C=C/C(C)C)n2)n1)OC [myxothiazol],Intracellular lactate levels in MitoTox Reporter cells (single-cell),[2],"acute, fast, and robust increase of intracellular lactate levels"
same,IC50,"[3]; dose-response, treatment time 0.5 hours (Fig 8 legend: 10 minutes), 37°C, read-out: IC50 (toxicity-induced lactate accumulation, MitoToxy)",1.2 µM
same,IC50,cell viability,183 µM
same,IC50,[7],3.3 µM
same,IC50,glutathione (GSH),> 1000 µM
same,IC50,[9]; [12],1.2 µM
CC(C)C(=O)Nc1ccc([N+](=O)[O-])c(C(F)(F)F)c1 [flutamide],ΔR% (lactate accumulation),[1]; 10 μM,8.71 ± 2.06%
same,Concentration at which toxicity / mitochondrial effects were detected in the pilot screening,[1],10 µM
CC1(COc2ccc(CC3SC(=O)NC3=O)cc2)CCCCC1 (stereo not shown) [ciglitazone],ΔR% (lactate accumulation),[1]; 10 μM,over 14%
same,Concentration at which toxicity / mitochondrial effects were detected in the pilot screening,[1],5 µM
same,EC50,"HepG2 cells [11]; Seahorse technology, read-out: Concentration required to change the OCR and ECAR by 50%",> 100 µM
same,IC50,[9]; [12],136 µM
COc1cc2nc(N3CCN(C(=O)c4ccco4)CC3)nc(N)c2cc1OC [prazosin],ΔR% variation / lactate accumulation over all concentrations tested,[1],None of these molecules produced an important ΔR% variation
same,IC50,[9]; [12],6.3 µM
CC(C)(C)c1ccc(C(O)CCCN2CCC(C(O)(c3ccccc3)c3ccccc3)CC2)cc1 (stereo not shown) [terfenadine],ΔR% (lactate accumulation),[1]; 1 μM,without any measurable effects
same,ΔR% (lactate accumulation),[1]; 5 μM,without any measurable effects
same,ΔR% (lactate accumulation),[1]; 10 μM,15.64 ± 1.32%
same,Concentration at which toxicity / mitochondrial effects were detected in the pilot screening,[1],10 µM
same,IC50,"[9]; unit inferred, read-out: IC50, MMP measurements",4.4 µM
COc1cc([C@@H]2c3cc4c(cc3[C@@H](O[C@@H]3O[C@@H]5CO[C@@H](C)O[C@H]5[C@H](O)[C@H]3O)[C@H]3COC(=O)[C@H]23)OCO4)cc(OC)c1O [etoposide],ΔR% variation / lactate accumulation over all concentrations tested,[1],None of these molecules produced an important ΔR% variation; also recorded: did not induce intra-cellular lactate accumulation
CN(CCOc1ccc(CC2SC(=O)NC2=O)cc1)c1ccccn1 (stereo not shown) [rosiglitazone],ΔR% (lactate accumulation),[1]; 10 μM,over 14%
same,Concentration at which toxicity / mitochondrial effects were detected in the pilot screening,[1],5 µM
same,Effect on OCR and ECAR,HepG2 cells [11]; between 0.13 and 100 μM,no effects were detected
same,IC50,[9]; [12],> 1000 µM
"CC(=O)Oc1ccccc1C(=O)O [aspirin, acetylsalicylic acid]",ΔR% variation / lactate accumulation over all concentrations tested,[1],None of these molecules produced an important ΔR% variation; also recorded: did not induce intra-cellular lactate accumulation
CC1(C)NC(=O)N(c2ccc([N+](=O)[O-])c(C(F)(F)F)c2)C1=O [nilutamide],ΔR% variation / lactate accumulation over all concentrations tested,[1],did not produce ΔR% changes at all the concentrations tested
same,ΔR% variation / lactate accumulation over all concentrations tested,[1]; listed as nilutamine,did not produce any effect
CCC(C)(C)C(=O)O[C@H]1C[C@@H](C)C=C2C=C[C@H](C)[C@H](CC[C@@H]3C[C@@H](O)CC(=O)O3)[C@H]21 [simvastatin],ΔR% variation / lactate accumulation over all concentrations tested,[1],None of these molecules produced an important ΔR% variation
same,IC50,[9]; [12],63.2 µM
CC[C@@]1(O)C(=O)OCc2c1cc1n(c2=O)Cc2cc3ccccc3nc2-1 [camptothecin],ΔR% (lactate accumulation),[1]; 1 μM,no change in ΔR% was detected
same,ΔR% (lactate accumulation),[1]; 5 μM,potent effect and 13.52 ± 3.6%
same,ΔR% (lactate accumulation),[1]; 10 μM,49.18 ± 7.4%
same,Cytosolic lactate accumulation (concentration),"[1]; 10 μM, inferred from the reported dynamic range and sensitivity of Laconic",over 10 mM
same,Concentration at which toxicity / mitochondrial effects were detected in the pilot screening,[1],5 µM
same,IC50,[9]; [12],206 µM
